In patent US6403816B1 (Dabur Research Foundation, priority 1997, dated 2002):

How the values were obtained:
[1] = tested on: A431, BC-1, COL-2, HT1080, KB, LNCaP, LU-1, U373, ZR-75-1; conditions: cited from earlier work
MEL-2 cells = conditions: cited from earlier work
[2] = tested on: human melanoma cell lines, Mel-1, Mel-2, and Mel-4; conditions: Mel-1, Mel-2, Mel-4; cited from earlier work
ECV304 [3] = assay: Tube-like-structure (TLS) formation of ECV304 cells on Matrigel; assay type: cell-based, human; conditions: 24-48 hours
Method: Matrigel (70 μl) was placed into each well of a 96-well culture plate at 4° C. and was allowed to polymerize by incubation at 37° C. for 30 min. ECV304 (1×10^4) cells were seeded on the Matrigel in 200 μl DMEM containing 10% FBS. […] Five different phase-contrast microscopic fields (4×) were viewed and total tube area of the tube-like-structures (TLS) measured using Video Pro 32 Image Analysis system. Percent reduction in total tube area was given as the mean of the data from five fields. Percent inhibition of TLS was calculated with reference to Controls(no drug).

L132 = assay: Tumor cell cytotoxicity assay, lung; assay type: cell-based; conditions: for Lung ECS Ratio: ED50 L132 / ED50 ECV304; for Lung L132 (ED50): concentration causing 50% cytotoxicity
Excerpt: (§1) The cytotoxicity assays for tumor cells have been described in detail in our application Ser. No. 09/040,856 filed in U.S. on Mar. 18, 1998.

HT-29 = assay: Tumor cell cytotoxicity assay, colon; assay type: cell-based; conditions: for Colon ECS Ratio: ED50 HT-29 / ED50 ECV304; for Colon HT-29 (ED50): concentration causing 50% cytotoxicity
Excerpt: as §1

PA-1 = assay: Tumor cell cytotoxicity assay, ovary; assay type: cell-based; conditions: for Ovary ECS Ratio: ED50 PA-1 / ED50 ECV304; for Ovary PA-1 (ED50): concentration causing 50% cytotoxicity
Excerpt: as §1

DU145 = assay: Tumor cell cytotoxicity assay, prostate; assay type: cell-based; conditions: for Prostate ECS Ratio: ED50 DU145 / ED50 ECV304; for Prostate DU145 (ED50): concentration causing 50% cytotoxicity
Excerpt: as §1

ECV304 [4] = assay: ECV304 endothelial cell proliferation, MTT assay; assay type: cell-based, human; conditions: concentration causing 50% cytotoxicity; MTT after 72 hours
Method: 30 μl of ECV304 cell suspension (50×10^4 cells/ml in RPMI 1640 containing 10% FBS) followed by 150 μl of medium was added to the wells of a 96-well tissue culture plate (Nunc, Denmark) and incubated (37° C., 5% CO2) overnight. […] Each concentration was plated in triplicates. 20μl of medium alone was added to control wells. After 72 hours of incubation an MTT assay (Mosmann, 1983) was performed and percentage inhibition in proliferation of treated cells was calculated with respect to control cells.

## C=C(C)[C@@H]1CC[C@]2(C(=O)O)CC[C@]3(C)[C@H](CC[C@@H]4[C@@]5(C)CC[C@H](O)C(C)(C)[C@@H]5CC[C@]43C)[C@@H]12 [Betulinic acid]
[1]
  ED50, other cell lines tested: greater than 20 μg/ml
MEL-2 cells
  In vitro growth of MEL-2 cells: inhibit in vitro growth
[2]
  Growth of melanoma cell lines: inhibited significantly

## CC(C)C1CCC2(C(=O)O)CCC3(C)C(CCC4C5(C)CCC(OC(=O)c6ccc(F)cc6F)C(C)(C)C5CCC43C)C12 (stereo not drawn) [MJ937-RS]
ECV304 [3]; 0.5 μg/ml
  % reduction in total tube area: 16.7%
ECV304 [3]; 2 μg/ml
  % reduction in total tube area: 21%
ECV304 [3]; 4 μg/ml
  % reduction in total tube area: 21.7%
L132
  Lung ECS Ratio: 1.5
  Lung L132 (ED50): 1.1 µg/mL
HT-29
  Colon ECS Ratio: 2.4
  Colon HT-29 (ED50): 1.7 µg/mL
PA-1
  Ovary ECS Ratio: 2.3
  Ovary PA-1 (ED50): 1.6 µg/mL
DU145
  Prostate ECS Ratio: 3.5
  Prostate DU145 (ED50): 2.5 µg/mL
ECV304 [4]
  Endothelial ECV304 (ED50): 0.7 µg/mL

## CC(C)C1CCC2(C(=O)O)CCC3(C)C(CCC4C5(C)CCC(N=Cc6ccc(F)c(F)c6)C(C)(C)C5CCC43C)C12 (stereo not drawn) [MJ998-RS]
ECV304 [3]; 0.5 μg/ml
  % reduction in total tube area: 21.1%
ECV304 [3]; 2 μg/ml
  % reduction in total tube area: 13.4%
ECV304 [3]; 4 μg/ml
  % reduction in total tube area: 33.4%
L132
  Lung ECS Ratio: 7.1
  Lung L132 (ED50): 2.5 µg/mL
HT-29
  Colon ECS Ratio: 11.4
  Colon HT-29 (ED50): 4 µg/mL
PA-1
  Ovary ECS Ratio: 3.7
  Ovary PA-1 (ED50): 1.3 µg/mL
DU145
  Prostate ECS Ratio: 6.2
  Prostate DU145 (ED50): 2.2 µg/mL
ECV304 [4]
  Endothelial ECV304 (ED50): 0.35 µg/mL

## CC(C)C1CCC2(C(=O)O)CCC3(C)C(CCC4C5(C)CCC(N=Cc6ccc(F)cc6F)C(C)(C)C5CCC43C)C12 (stereo not drawn) [MJ1065-RS]
ECV304 [3]; 0.5 μg/ml
  % reduction in total tube area: 23.4%
ECV304 [3]; 2 μg/ml
  % reduction in total tube area: 16.7%
ECV304 [3]; 4 μg/ml
  % reduction in total tube area: 46.7%
L132
  Lung ECS Ratio: 1.4
  Lung L132 (ED50): 3.4 µg/mL
HT-29
  Colon ECS Ratio: 2.04
  Colon HT-29 (ED50): 4.9 µg/mL
PA-1
  Ovary ECS Ratio: 0.54
  Ovary PA-1 (ED50): 1.3 µg/mL
DU145
  Prostate ECS Ratio: 1.04
  Prostate DU145 (ED50): 2.5 µg/mL
ECV304 [4]
  Endothelial ECV304 (ED50): 2.4 µg/mL

## CC(C)C1CCC2(C(=O)O)CCC3(C)C(CCC4C5(C)CCC(=NOCc6ccc([N+](=O)[O-])cc6)C(C)(C)C5CCC43C)C12 (stereo not drawn) [MJ1098-RS]
ECV304 [3]; 0.5 μg/ml
  % reduction in total tube area: 15%
ECV304 [3]; 2 μg/ml
  % reduction in total tube area: 7.5%
ECV304 [3]; 4 μg/ml
  % reduction in total tube area: 10%
L132
  Lung ECS Ratio: 2.1
  Lung L132 (ED50): 1.3 µg/mL
HT-29
  Colon ECS Ratio: 4.3
  Colon HT-29 (ED50): 2.6 µg/mL
PA-1
  Ovary ECS Ratio: 2.7
  Ovary PA-1 (ED50): 1.6 µg/mL
DU145
  Prostate ECS Ratio: 2.5
  Prostate DU145 (ED50): 1.5 µg/mL
ECV304 [4]
  Endothelial ECV304 (ED50): 0.6 µg/mL
